Test results published in patent publication US7473669B2, “Substituted 4,5-dihydro-1,2,4-triazin-6-ones, 1,2,4-triazin-6-ones, and their use as fungicides” (priority 2005, dated 2009).

What was measured:
Colletotricum lagenarium = test: Cucumber Anthracnose greenhouse one-day protectant test; format: in vivo; details: Cucumis sativus, 24 h, cucumber plants, one-day protectant test, 200 ppm application rate; read-out: COLLLA percent control rating
[1] = system: Puccinia recondita tritici; test: Leaf Rust of Wheat greenhouse one-day protectant test; format: in vivo; details: 24 h, wheat plants, one-day protectant test, 200 ppm application rate, read-out: PUCCRT percent control rating
Leptosphaeria nodorum = test: Glume Blotch of Wheat greenhouse one-day protectant test; format: in vivo; details: Parastagonospora nodorum, 24 h; wheat plants, one-day protectant test, 200 ppm application rate; read-out: LEPTNO percent control rating
Erysiphe cichoracaerum = test: Cucumber Powdery Mildew greenhouse one-day protectant test; format: in vivo; details: 24 h, cucumber plants, one-day protectant test, 200 ppm application rate, read-out: ERYSCI percent control rating
Pyricularia oryzae = test: whole plant or invertebrate; format: in vivo; details: 24 h, read-out: PYRIOR percent control rating
Phytophthora infestans = test: whole plant or invertebrate; format: in vivo; details: in Solanum lycopersicum, 24 h, read-out: PHYTIN percent control rating, tomato plants, one-day protectant test, 200 ppm application rate

Row | Compound | melting point | pest or weed control at 200 ppm (Colletotricum lagenarium) | pest or weed control at 200 ppm [1] | pest or weed control at 200 ppm (Leptosphaeria nodorum) | pest or weed control at 200 ppm (Erysiphe cichoracaerum) | pest or weed control at 200 ppm (Pyricularia oryzae) | pest or weed control at 200 ppm (Phytophthora infestans)
1 | O=C1C(SC2CCCCC2)NC(c2cccc(I)c2)=NN1CC(F)(F)F (stereo not shown) [Compound 49, 5-cyclohexylthio-3-(3-iodophenyl)-1-(2,2,2-trifluoroethyl)-4,5-1,2,4-dihydrotriazin-6(1H)-one] | 172 to 173 °C | 80 to 100% | 80 to 100% | 80 to 100% | 0 to 49% | 80 to 100% | 0 to 49%
2 | CON=C(c1ccccc1)c1cccc(-c2ncc(=O)n(CC(F)(F)F)n2)c1 [Compound 94, 3-{3-[(Z)-(Methoxyimino)phenyl)methyl]phenyl}-1-(2,2,2-trifluoroethyl)-1,2,4-triazin-6(1H)-one] | 127 to 129 °C | 0 to 49% | 80 to 100% | 80 to 100% | 0 to 49% | 80 to 100% | 0 to 49%
3 | CON=C(c1ccccc1)c1cccc(C2=NN(CC(F)(F)F)C(=O)CN2)c1 [Compound 75, 3-{3-[(Z)-(Methoxyimino)phenyl)methyl]phenyl}-1-(2,2,2-trifluoroethyl)-4,5-dihydro-1,2,4-triazin-6(1H)-one] | 119 to 123 °C | 0 to 49% | 80 to 100% | 80 to 100% | 0 to 49% | 80 to 100% | 0 to 49%
4 | O=C1CNC(c2cc(Br)cc(-c3ccsc3)c2)=NN1CC(F)(F)F [Compound 67, 3-(3-Bromo-5-thien-3-ylphenyl)-1-(2,2,2-trifluoroethyl)-4,5-dihydro-1,2,4-triazin-6(1H)-one] | 167 to 169 °C | 80 to 100% | 80 to 100% | 80 to 100% | 0 to 49% | 80 to 100% | 0 to 49%
